For one series, the system named is Mouse melanoma B16F10. In words: Cell viability assay, CellTiter-Glo, B16F10. The protocol: (§1) Indicated cells were treated with indicated drug combinations for 48 h or as indicated in conditions imitating tumor environment—RPMI supplemented with 10% FCS and 20 mM PIPES, adjusted to pH 6.5. After treatment, cells were analyzed for cell viability: • using CellTiter-Blue® Cell Viability Assay, Promega according to manufacturer recommendations. For each treatment, the fraction (%) of viable cells are indicated. Untreated viable cells were set to 100%. Average data of 2 independent experiments are presented. Each independent experiment contained 4 biological replicates for each condition. • using CellTiter-Glo® Cell Viability Assay, Promega according manufacturer recommendations. For each treatment the fraction (%) of viable cells are indicated. Untreated viable cells were set to 100%. Each measurement represents the mean value of 4 biological replicates for each condition.

For series [1], the system named is Colon cancer DLD1 cells. In words: Cell viability assay, CellTiter-Glo, DLD1. The method, then: as §1
A general note: ATP-based viability assays read luminescence as a measure of living cells.

For the next series, the system named is Melanoma A375 cells. The experiment in a line: Cell viability assay, CellTiter-Glo, A375. As to conditions: Homo sapiens, A-375, 48 h, pH 6.5, read-out: fraction (%) of viable cells. The method, then: as §1
In the next series the test system is Lung cancer H1975 cells. In words: Cell viability assay, CellTiter-Blue, H1975. As to conditions: Homo sapiens, NCI-H1975, 48 h, pH 6.5, read-out: fraction (%) of viable cells. The protocol: as §1
The test system of series [2] is Pancreas cancer Bxpc3 cells. The experiment in a line: Cell viability assay, CellTiter-Glo, Bxpc3. As to conditions: Homo sapiens, BXPC-3, 48 h, pH 6.5, read-out: fraction (%) of viable cells. The protocol:
as §1

Series [3] has as its system Breast cancer MDA-MB-231 cells. In words: Cell viability assay, CellTiter-Blue, MDA-MB-231. As to conditions: Homo sapiens, MDA-MB-231, 48 h, pH 6.5, read-out: fraction (%) of viable cells. The method, then:
as §1

Series [4] deals with Prostate cancer PC3 cells. In words: Cell viability assay, CellTiter-Glo, PC3. As to conditions: Homo sapiens, PC-3, 48 h, pH 6.5, read-out: fraction (%) of viable cells. The protocol:
as §1

Series [5] concerns Colon cancer DLD1 cells. The experiment in a line: Cell viability assay, CellTiter-Blue, DLD1. As to conditions: Homo sapiens, DLD-1, 72 h, pH 6.5, read-out: fraction (%) of viable cells. The method, then: as §1
A general note: Alamar Blue is a resazurin reagent that responds to reducing activity.

Another series deals with Lung cancer H1975. The experiment in a line: Cell viability assay, CellTiter-Glo, H1975. As to conditions: Homo sapiens, NCI-H1975, 72 h, pH 6.5, read-out: fraction (%) of viable cells. The method, then: as §1
[6] abbreviates: Homo sapiens, DLD-1, 72 h, pH 6.5, read-out: fraction (%) of viable cells.

Where two headings read alike, the source gives them in different places.

As to `C=C[C@@]1(C)CC(=O)[C@]2(O)[C@@]3(C)[C@@H](O)CCC(C)(C)[C@@H]3[C@H](O)[C@H](OC(C)=O)[C@@]2(C)O1` [Forskolin, forskolin], the viability at 10 µM in the series on Mouse melanoma B16F10 (Mus musculus, B16-F10, 48 h, pH 6.5, read-out: relative values of cell viability, Forskolin 10 μM alone, pH 6.5) is 78%.

`[H]/N=C(/N)N/C(=N/[H])NCCc1ccccc1` [Phenformin]: the viability at 4 µM in the series on Mouse melanoma B16F10 (Mus musculus, B16-F10, 48 h, pH 6.5, read-out: fraction (%) of viable cells, Phenformin 4 μM, Maduramicin 0.00 nM, pH 6.5 (Table 12)) is 82%; in the series on Mouse melanoma B16F10 (Mus musculus, B16-F10, 48 h, pH 6.5, read-out: fraction (%) of viable cells, Phenformin 4 μM, Monensin 0.00 nM, pH 6.5 (Table 11)), 82%. Moreover, the viability at 8 µM in the series with Mouse melanoma B16F10 (Mus musculus, B16-F10, 48 h, pH 6.5, read-out: fraction (%) of viable cells, Phenformin 8 μM, Maduramicin 0.00 nM, pH 6.5 (Table 12)) was 76%; in the series on Mouse melanoma B16F10 (Mus musculus, B16-F10, 48 h, pH 6.5, read-out: fraction (%) of viable cells, Phenformin 8 μM, Monensin 0.00 nM, pH 6.5 (Table 11)) it was 76%. For the same molecule, the viability at 16 µM in the series on Mouse melanoma B16F10 (Mus musculus, B16-F10, 48 h, pH 6.5, read-out: fraction (%) of viable cells, Phenformin 16 μM, Maduramicin 0.00 nM, pH 6.5 (Table 12)) amounted to 56%; in the series with Mouse melanoma B16F10 (Mus musculus, B16-F10, 48 h, pH 6.5, read-out: fraction (%) of viable cells, Phenformin 16 μM, Monensin 0.00 nM, pH 6.5 (Table 11)), 56%.

As to `C=C(C)[C@H]1Cc2c(ccc3c2O[C@@H]2COc4cc(OC)c(OC)cc4[C@@H]2C3=O)O1` [Rotenone], the viability at 0.005 µM in the series on Colon cancer DLD1 cells [1] (setting [6]) amounted to 96%; in the series on Melanoma A375 cells, 75%; in the series with Lung cancer H1975 cells, 104%; in series [2], 104%; in series [3] it was 102%; in [4], 45%. Further, the viability at 0.005 µM with Colon cancer DLD1 cells [5] stood at 87%. Further, the viability at 0.01 µM in the series with Colon cancer DLD1 cells [1] (setting [6]) came out at 89%; in the series with Lung cancer H1975 cells it was 110%; in series [2], 89%; in series [3] it was 99%; in [4] it was 4%. In addition, the viability at 0.02 µM with Colon cancer DLD1 cells [1] (setting [6]) came to 67%; in the series on Lung cancer H1975 cells, 84%; in series [2] it was 59%; in [3] it was 81%; in series [4], 1%. The viability at 0.00125 µM in the series with Melanoma A375 cells stood at 96%. Further, the viability at 0.0025 µM came out at 91% in the series with Melanoma A375 cells, 103% with Lung cancer H1975 cells and 98% in [3].

Consider `CO[C@@H]1[C@@H](OC)[C@H](C)[C@@](O)(CC(=O)O)O[C@H]1[C@H](C)[C@H]1O[C@@]2(CC[C@@](C)([C@H]3CC[C@@](C)([C@@H]4O[C@@H]([C@H]5O[C@](C)(O)[C@H](C)C[C@@H]5C)C[C@@H]4O[C@@H]4C[C@H](OC)[C@@H](OC)[C@H](C)O4)O3)O2)C[C@H](O)[C@H]1C` [Maduramicin], for which, in the series with Mouse melanoma B16F10 (Mus musculus, B16-F10, 48 h, pH 6.5, read-out: fraction (%) of viable cells, Maduramicin 4.00 nM, Phenformin 0.00 μM, pH 6.5), the viability at 0.004 µM amounted to 111%.

As for `CC[C@@]1([C@@H]2O[C@@H]([C@H]3O[C@@](O)(CO)[C@H](C)C[C@@H]3C)C[C@@H]2C)CC[C@H]([C@]2(C)CC[C@]3(C[C@H](O)[C@@H](C)[C@@H]([C@@H](C)[C@@H](OC)[C@H](C)C(=O)O)O3)O2)O1` [Monensin], in the series with Colon cancer DLD1 cells [1] (human, 72 h, 5 nM, pH 6.5), the “fraction (%) of viable cells” value worked out at 112%. The viability at 0.004 µM in the series on Mouse melanoma B16F10 (Mus musculus, B16-F10, 48 h, pH 6.5, read-out: fraction (%) of viable cells, Monensin 4.00 nM, Metformin 0.00 μM, pH 6.5) worked out at 111%. Moreover, the viability at 0.004 µM with Mouse melanoma B16F10 (Mus musculus, B16-F10, 48 h, pH 6.5, read-out: fraction (%) of viable cells, Monensin 4.00 nM, Phenformin 0.00 μM, pH 6.5) was 95%. The viability at 0.005 µM in the series with Lung cancer H1975 stood at 55%. Further, in the series on Colon cancer DLD1 cells [5], the viability at 0.005 µM stood at 88%, the viability at 0.01 µM turned out to be 72% and the viability at 0.02 µM came to 55%.

Turning to `CO[C@@H]1C[C@@H](C[C@H]2CC[C@H](C)[C@H]([C@@H](C)C(=O)O)O2)O[C@]2(O[C@](C)([C@H]3CC[C@@](C)([C@@H]4O[C@@H]([C@H]5O[C@@](O)(CO)[C@H](C)C[C@@H]5C)C[C@@H]4C)O3)C[C@H]2C)[C@@H]1C` [Nigericin], the viability at 0.005 µM turned out to be 107% in the series on Colon cancer DLD1 cells [1] (setting [6]); 95% in the series on Lung cancer H1975 cells; 39% in series [2]; 101% in series [3]; 31% in series [4]. Besides, the viability at 0.01 µM in the series with Colon cancer DLD1 cells [1] (setting [6]) is 103%; in [2], 35%; in series [4], 0%. Besides, the viability at 0.00125 µM in the series with Melanoma A375 cells came out at 58%. In addition, the viability at 0.0025 µM in the series on Melanoma A375 cells is 7%; in the series with Lung cancer H1975 cells it was 93%; in series [3] it was 98%.

For the molecule `Nc1ncnc2c1nc(Sc1ccc(Cl)cc1)n2[C@@H]1O[C@@H]2COP(=O)([O-])O[C@H]2[C@H]1O.[Na+]` [8-CPT-cAMP, 8-(4-Chlorophenylthio)-adenosine-3′,5′-cyclic monophosphate], the “relative values of cell viability” value in the series with Mouse melanoma B16F10 (8-CPT-cAMP 100 μM alone, 48 h, pH 6.5) stood at 86%.

These data come from patent US20190321311A1, “Cancer Treatment by Simultaneous Targeting Energy Metabolism and Intracellular pH” (Deutsches Krebsforschungszentrum, priority 2016, published 2019).
